Measurements as given in ChEMBL document CHEMBL1932917, “4,5-dihydropyridazin-3-one derivatives as histamine H₃ receptor inverse agonists” (Bioorg Med Chem Lett, 2012).
One block for each compound: values may come before it.

Tests used:
Histamine H3 receptor [1] = biological target: T1, Histamine H3 receptor (Homo sapiens, UniProt Q9Y5N1); assay: Antagonist activity at human histamine H3 receptor by [35S]GTPgammaS binding assay; type: functional
Histamine H3 receptor [2] = biological target: T1, Histamine H3 receptor; assay: Displacement of [3H]NAMH from human histamine H3 receptor expressed in CHO cells; type: cell-based
Histamine H3 receptor [3] = biological target: Histamine H3 receptor (Rattus norvegicus, UniProt Q9QYN8); assay: Displacement of [3H]NAMH from rat histamine H3 receptor expressed in CHO cells; type: cell-based
Sequence of Histamine H3 receptor (Rattus norvegicus, UniProt Q9QYN8) (Q9QYN8 whole entry): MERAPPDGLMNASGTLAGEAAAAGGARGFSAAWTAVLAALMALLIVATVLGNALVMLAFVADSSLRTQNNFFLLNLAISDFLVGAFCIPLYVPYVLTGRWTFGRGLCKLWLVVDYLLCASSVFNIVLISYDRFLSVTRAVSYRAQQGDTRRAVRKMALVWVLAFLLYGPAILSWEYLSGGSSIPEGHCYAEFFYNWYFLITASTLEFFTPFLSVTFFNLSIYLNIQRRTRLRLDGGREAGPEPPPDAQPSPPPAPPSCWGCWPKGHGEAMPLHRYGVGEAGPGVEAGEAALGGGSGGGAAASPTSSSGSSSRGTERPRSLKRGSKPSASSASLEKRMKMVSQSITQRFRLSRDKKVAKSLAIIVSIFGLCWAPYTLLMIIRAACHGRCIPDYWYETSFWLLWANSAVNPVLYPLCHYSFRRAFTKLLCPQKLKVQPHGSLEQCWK

[4] = Ratio of drug level in brain to plasma in rat at 10 mg/kg, ip after 6 hrs; type: ADME, organism-based; parameters: dose 10 mg/kg, route intraperitoneal; details: brain/plasma, read-out: BPR
Rattus norvegicus = assay: Inhibition of RAMH-induced dipsogenia in po dosed rat; type: functional
Histamine H3 receptor [5] = biological target: T1, Histamine H3 receptor; assay: Inverse agonist activity at human histamine H3 receptor by [35S]GTPgammaS binding assay; type: functional
[6] = Apparent permeability of the compound in human Caco2 cells; type: ADME, cell-based; details: Caco-2
[7] = Solubility of the compound in water at pH 2; type: physicochemical
[8] = Solubility of the compound in water at pH 7.4; type: physicochemical
[9] = Half life in mouse liver microsomes; type: ADME, Microsome
[10] = Half life in rat liver microsomes; type: ADME, Microsome
[11] = Half life in dog liver microsomes; type: ADME, Canis lupus familiaris, Microsome
[12] = Half life in monkey liver microsomes; type: ADME, Macaca mulatta, Microsome; details: rhesus monkey
[13] = Half life in human liver microsomes; type: ADME, Microsome
Cytochrome P450 1A2 = biological target: T2, Cytochrome P450 1A2 (Homo sapiens, UniProt P05177); assay: Inhibition of CYP1A2; type: ADME
T2 sequence (P05177 whole entry): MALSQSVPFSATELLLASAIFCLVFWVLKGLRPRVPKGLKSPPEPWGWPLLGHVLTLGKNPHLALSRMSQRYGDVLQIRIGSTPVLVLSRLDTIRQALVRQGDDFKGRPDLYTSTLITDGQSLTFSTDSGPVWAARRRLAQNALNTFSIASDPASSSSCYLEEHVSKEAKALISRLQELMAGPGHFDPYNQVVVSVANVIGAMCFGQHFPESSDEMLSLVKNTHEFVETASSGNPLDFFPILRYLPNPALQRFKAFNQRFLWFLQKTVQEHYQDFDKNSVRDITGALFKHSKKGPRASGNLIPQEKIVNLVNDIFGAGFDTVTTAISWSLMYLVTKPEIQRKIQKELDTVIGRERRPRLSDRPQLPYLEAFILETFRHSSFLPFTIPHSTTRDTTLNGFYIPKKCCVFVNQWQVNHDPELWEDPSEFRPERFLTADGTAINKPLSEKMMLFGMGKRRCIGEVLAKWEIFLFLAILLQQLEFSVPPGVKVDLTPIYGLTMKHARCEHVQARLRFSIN

Cytochrome P450 2C9 = Cytochrome P450 2C9 (Homo sapiens, UniProt P11712); assay: Inhibition of CYP2C9; type: ADME
Sequence of Cytochrome P450 2C9 (P11712 whole entry): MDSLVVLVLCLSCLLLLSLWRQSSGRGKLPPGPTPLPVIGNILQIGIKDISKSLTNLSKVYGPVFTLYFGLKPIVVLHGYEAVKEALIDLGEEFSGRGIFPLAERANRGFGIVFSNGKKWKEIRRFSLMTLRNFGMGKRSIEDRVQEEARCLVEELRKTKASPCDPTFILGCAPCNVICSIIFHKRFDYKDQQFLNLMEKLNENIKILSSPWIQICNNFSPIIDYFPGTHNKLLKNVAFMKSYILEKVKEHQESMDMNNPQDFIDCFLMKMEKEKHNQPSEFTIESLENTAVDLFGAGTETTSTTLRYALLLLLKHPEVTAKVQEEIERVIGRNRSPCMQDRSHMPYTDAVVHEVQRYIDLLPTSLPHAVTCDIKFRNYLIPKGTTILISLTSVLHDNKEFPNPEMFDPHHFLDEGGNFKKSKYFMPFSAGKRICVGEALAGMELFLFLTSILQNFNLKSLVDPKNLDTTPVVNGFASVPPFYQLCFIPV

Cytochrome P450 2C19 = Cytochrome P450 2C19 (Homo sapiens, UniProt P33261); assay: Inhibition of CYP2C19; type: ADME
Sequence of Cytochrome P450 2C19 (P33261 whole entry): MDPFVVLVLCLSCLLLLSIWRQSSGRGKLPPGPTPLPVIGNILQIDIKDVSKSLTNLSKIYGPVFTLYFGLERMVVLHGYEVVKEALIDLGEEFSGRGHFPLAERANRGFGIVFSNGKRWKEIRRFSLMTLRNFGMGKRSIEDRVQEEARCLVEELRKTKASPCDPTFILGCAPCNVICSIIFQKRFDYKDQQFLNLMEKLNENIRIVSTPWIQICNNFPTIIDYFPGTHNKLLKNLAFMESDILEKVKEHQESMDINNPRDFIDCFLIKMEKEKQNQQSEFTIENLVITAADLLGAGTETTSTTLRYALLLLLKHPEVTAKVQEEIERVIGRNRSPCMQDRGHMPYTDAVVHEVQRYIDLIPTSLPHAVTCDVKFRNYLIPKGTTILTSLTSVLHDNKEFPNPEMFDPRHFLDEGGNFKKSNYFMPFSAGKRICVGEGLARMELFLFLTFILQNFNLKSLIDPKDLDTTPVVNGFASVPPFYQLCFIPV

Cytochrome P450 2D6 = Cytochrome P450 2D6 (Homo sapiens, UniProt P10635); assay: Inhibition of CYP2D6; type: ADME
Sequence of Cytochrome P450 2D6 (P10635 whole entry): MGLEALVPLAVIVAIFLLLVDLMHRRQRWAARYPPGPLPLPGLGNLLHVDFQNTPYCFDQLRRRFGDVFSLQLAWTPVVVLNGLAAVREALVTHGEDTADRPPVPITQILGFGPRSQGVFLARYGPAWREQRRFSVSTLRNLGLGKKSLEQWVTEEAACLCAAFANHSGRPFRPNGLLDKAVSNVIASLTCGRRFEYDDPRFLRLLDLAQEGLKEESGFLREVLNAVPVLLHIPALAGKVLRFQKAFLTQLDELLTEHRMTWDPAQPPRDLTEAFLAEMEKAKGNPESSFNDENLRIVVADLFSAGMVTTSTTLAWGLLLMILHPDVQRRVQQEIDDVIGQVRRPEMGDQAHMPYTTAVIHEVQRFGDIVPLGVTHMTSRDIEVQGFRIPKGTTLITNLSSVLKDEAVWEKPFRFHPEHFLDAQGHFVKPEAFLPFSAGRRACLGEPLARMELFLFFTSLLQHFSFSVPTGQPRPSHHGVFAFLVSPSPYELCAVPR

Cytochrome P450 3A4 = Cytochrome P450 3A4 (Homo sapiens, UniProt P08684); assay: Inhibition of CYP3A4; type: ADME
Sequence of Cytochrome P450 3A4 (P08684 whole entry): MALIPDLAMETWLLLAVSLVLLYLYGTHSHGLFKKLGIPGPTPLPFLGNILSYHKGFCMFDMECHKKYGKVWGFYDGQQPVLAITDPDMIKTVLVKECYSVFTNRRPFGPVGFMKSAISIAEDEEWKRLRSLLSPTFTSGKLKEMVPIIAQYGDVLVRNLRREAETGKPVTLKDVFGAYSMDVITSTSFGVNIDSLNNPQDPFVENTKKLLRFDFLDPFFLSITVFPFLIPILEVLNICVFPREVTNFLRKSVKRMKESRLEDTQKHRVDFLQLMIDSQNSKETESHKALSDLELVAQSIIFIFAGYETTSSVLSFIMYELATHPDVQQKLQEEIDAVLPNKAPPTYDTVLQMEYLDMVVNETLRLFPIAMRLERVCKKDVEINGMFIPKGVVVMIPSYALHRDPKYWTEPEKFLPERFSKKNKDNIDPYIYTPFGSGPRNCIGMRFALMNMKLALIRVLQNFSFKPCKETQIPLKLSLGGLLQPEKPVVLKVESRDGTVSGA

[14] = biological target: T3, Muscarinic acetylcholine receptor M2 (Homo sapiens) (UniProt P08172); assay: Inhibition of muscarinic M2 receptor at 10 uM
T3 sequence (whole entry): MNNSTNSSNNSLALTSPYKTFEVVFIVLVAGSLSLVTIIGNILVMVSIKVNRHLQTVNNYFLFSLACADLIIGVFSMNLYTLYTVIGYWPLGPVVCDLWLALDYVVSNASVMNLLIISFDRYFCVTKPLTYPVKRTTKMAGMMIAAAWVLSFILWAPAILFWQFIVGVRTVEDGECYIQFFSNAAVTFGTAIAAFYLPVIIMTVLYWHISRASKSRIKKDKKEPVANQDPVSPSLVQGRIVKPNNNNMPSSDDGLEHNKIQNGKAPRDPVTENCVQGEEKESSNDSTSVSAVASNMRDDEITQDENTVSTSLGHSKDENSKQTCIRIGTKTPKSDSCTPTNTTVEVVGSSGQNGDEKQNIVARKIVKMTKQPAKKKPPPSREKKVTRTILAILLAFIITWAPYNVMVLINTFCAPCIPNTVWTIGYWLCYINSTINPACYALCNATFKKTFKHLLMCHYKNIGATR

[15] = Half life in rat at 1 mg/kg, iv; type: ADME, organism-based; parameters: dose 1 mg/kg, route intravenous; details: in vivo
[16] = Volume of distribution in rat at 1 mg/kg, iv; type: ADME, organism-based; parameters: dose 1 mg/kg, route intravenous; details: in vivo
[17] = Clearance in rat at 1 mg/kg, iv; type: ADME, organism-based; parameters: dose 1 mg/kg, route intravenous; details: in vivo
[18] = AUC in rat at 5 mg/kg, po; type: ADME, organism-based, Plasma; parameters: dose 5 mg/kg, route oral; details: plasma
[19] = Cmax in rat at 5 mg/kg, po; type: ADME, organism-based; parameters: dose 5 mg/kg, route oral; details: in vivo
[20] = Oral bioavailability in rat at 5 mg/kg; type: ADME, organism-based; details: in vivo
[21] = Drug uptake in rat brain at 5 mg/kg, po after 6 hrs; type: ADME, organism-based; parameters: dose 5 mg/kg, route oral; details: read-out: Drug uptake

T1 sequence (Q9Y5N1 whole entry): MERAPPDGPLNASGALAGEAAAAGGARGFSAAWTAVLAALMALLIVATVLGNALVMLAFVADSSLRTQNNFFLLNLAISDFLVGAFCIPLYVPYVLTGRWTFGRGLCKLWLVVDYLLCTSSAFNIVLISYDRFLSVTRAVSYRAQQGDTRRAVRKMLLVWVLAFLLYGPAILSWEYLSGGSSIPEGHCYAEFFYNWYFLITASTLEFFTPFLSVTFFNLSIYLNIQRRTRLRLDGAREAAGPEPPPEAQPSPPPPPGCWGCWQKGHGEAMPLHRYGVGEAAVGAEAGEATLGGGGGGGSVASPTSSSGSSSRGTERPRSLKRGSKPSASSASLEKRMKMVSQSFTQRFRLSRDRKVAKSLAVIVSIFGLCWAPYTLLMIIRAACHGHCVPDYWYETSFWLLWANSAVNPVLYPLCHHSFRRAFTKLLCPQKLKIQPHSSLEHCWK

Kb (Histamine H3 receptor [1]): 0.54 nM
Structure (SMILES): CC1CC(=O)NN=C1c1ccc(OCCCN2CCC[C@H]2C)cc1 (single isomer, unassigned; isomer 2)

Ki (Histamine H3 receptor [2]): 5.6 nM
Ki (Histamine H3 receptor [3]): 18 nM
Structure (SMILES): CC1CC(=O)NN=C1c1ccc(OCCCN2CCC[C@H]2C)cc1 (mixture of isomers)

Kp at 6 h [4]: 3.1
Ki (Histamine H3 receptor [2]): 3.2 nM
Ki (Histamine H3 receptor [3]): 8.8 nM
EC50 (Histamine H3 receptor [5]): 0.7 nM
Papp [6]: 11.4 ×10⁻⁶ cm/s
solubility [7]: > 2000 µg/mL
solubility [8]: > 2000 µg/mL
half-life [9]: > 40 min
half-life [10]: > 40 min
half-life [11]: > 40 min
half-life [12]: > 40 min
half-life [13]: > 40 min
IC50 (Cytochrome P450 1A2): > 30000 nM
IC50 (Cytochrome P450 2C9): > 30000 nM
IC50 (Cytochrome P450 2C19): > 30000 nM
IC50 (Cytochrome P450 2D6): > 11000 nM
IC50 (Cytochrome P450 3A4): > 11000 nM
inhibition [14]: 60%
half-life [15]: 66 min
Vd [16]: 0.8 L/kg
clearance [17]: 8.5 mL/min/kg
AUC [18]: 1830 ng·h/mL
Cmax [19]: 376 ng/mL
bioavailability [20]: 19%
concentration at 6 h [21]: 2200 nM
Structure (SMILES): C[C@@H]1CCCN1CCCOc1ccc(C2=NNC(=O)CC2)cc1
ED50 (Rattus norvegicus): 0.06 mg/kg
inhibition (Rattus norvegicus): Dose-dependent effect

Ki (Histamine H3 receptor [2]): 83 nM
Ki (Histamine H3 receptor [3]): 85 nM
Structure (SMILES): CC1CC(=O)NN=C1c1ccc(OCCCN2CCCC2)cc1 (racemic)

Kp at 6 h [4]: 1.8
Ki (Histamine H3 receptor [2]): 6.8 nM
Ki (Histamine H3 receptor [3]): 29 nM
EC50 (Histamine H3 receptor [5]): 1.3 nM
half-life [9]: > 40 min
half-life [10]: > 40 min
half-life [11]: > 40 min
half-life [12]: > 40 min
half-life [13]: > 40 min
IC50 (Cytochrome P450 1A2): > 30000 nM
IC50 (Cytochrome P450 2C9): > 30000 nM
IC50 (Cytochrome P450 2C19): > 30000 nM
IC50 (Cytochrome P450 2D6): > 30000 nM
IC50 (Cytochrome P450 3A4): > 30000 nM
half-life [15]: 108 min
Vd [16]: 3.5 L/kg
AUC [18]: 1360 ng·h/mL
Cmax [19]: 301 ng/mL
bioavailability [20]: 40%
Structure (SMILES): CC1CC(=O)NN=C1c1ccc(OCCCN2CCC[C@H]2C)cc1 (stereo in doubt; 19a)

More lines, now with the values behind:

Structure (SMILES): C[C@H]1CCCN1CCCOc1ccc(C2=NNC(=O)CC2)cc1
Ki (Histamine H3 receptor [2]): 37 nM
Ki (Histamine H3 receptor [3]): 114 nM

Structure (SMILES): C[C@@H]1CCCN1CCCOc1ccc(C2=NNC(=O)CC2(C)C)cc1
Ki (Histamine H3 receptor [2]): 20 nM
Ki (Histamine H3 receptor [3]): 59 nM

Structure (SMILES): C[C@@H]1CCCN1CCCOc1ccc(C2=NN(c3ccccn3)C(=O)CC2)cc1
Ki (Histamine H3 receptor [2]): 12 nM
Ki (Histamine H3 receptor [3]): 42 nM

Structure (SMILES): C[C@@H]1CCCN1CCCOc1ccc(C2=NN(CC(F)(F)F)C(=O)CC2)cc1
Ki (Histamine H3 receptor [2]): 5 nM
Ki (Histamine H3 receptor [3]): 10 nM

Structure (SMILES): C[C@@H]1CCCN1CCCOc1ccc(C2=NNC(=O)CC2c2ccccn2)cc1 (mixture of isomers)
Ki (Histamine H3 receptor [2]): 9.9 nM
Ki (Histamine H3 receptor [3]): 21 nM

Structure (SMILES): CC1CC(c2ccc(OCCCN3CCC[C@H]3C)cc2)=NNC1=O (mixture of isomers)
Ki (Histamine H3 receptor [2]): 1.9 nM
Ki (Histamine H3 receptor [3]): 4 nM
